Legend:
[1] = test system: hair follicles of female CD-1 mice; experiment: Histological analysis of skin to determine the phase of the hair cycle; assay type: in vivo, mouse
Description: Female CD-1 mice, 4, 5, or 9 weeks of age, were purchased from Charles River Laboratories, Raleigh, N.C. Mice were kept in an animal facility at least 1 week prior to use and were fed rodent chow (Agway Food, Granville Milling and Co., Creedmoor, N.C.) and water ad libitum. The mice were kept on corn cob bedding and placed on a 12 hour light/dark cycle. Female CD-1 mice were clipped on the dorsal region (approximately 4×2.5 cm area) with electric clippers. The mice were then treated twice weekly on the clipped dorsal surface with either (a) 10 nmol 17-β-estradiol in 200 μl acetone or (b) acetone alone. For the studies with the estrogen receptor antagonist, ICI 182,780 was dissolved in acetone and 200 μl was topically applied twice weekly. […] To determine the effect of 17-β-estradiol on the hair follicle cycle, mice were treated with 17-β-estradiol or acetone alone twice weekly from the 4th week of age to the 15th week of age. Every week, histological analysis of the skin from 3 mice from each group was conducted to determine the phase of the hair cycle. Representative skin histology sections from acetone- and 17-β-estradiol-treated mice at 7, 9, and 11 weeks of age are shown in FIGS. 6A-6F. As expected, at 7 weeks of age all follicles were in telogen in both the 17-β-estradiol and the acetone-treated mice.

[2] = test system: hair growth on clipped dorsal skin of female CD-1 mice; experiment: Hair regrowth on clipped dorsal skin of mice after twice-weekly topical treatment; assay type: in vivo, mouse; conditions: for effect on hair growth (figure legend): 10 nmol in 200 μL acetone applied topically to clipped hair area, mice; for mice demonstrating partial patchy hair regrowth: 10 nmol topically twice weekly from 6th week; for hair growth in pre-existing anagen follicles: 10 week old mice in anagen phase, twice weekly topical
Description: Female CD-1 mice, 4, 5, or 9 weeks of age, were purchased from Charles River Laboratories, Raleigh, N.C. Mice were kept in an animal facility at least 1 week prior to use and were fed rodent chow (Agway Food, Granville Milling and Co., Creedmoor, N.C.) and water ad libitum. The mice were kept on corn cob bedding and placed on a 12 hour light/dark cycle. Female CD-1 mice were clipped on the dorsal region (approximately 4×2.5 cm area) with electric clippers. The mice were then treated twice weekly on the clipped dorsal surface with either (a) 10 nmol 17-β-estradiol in 200 μl acetone or (b) acetone alone. For the studies with the estrogen receptor antagonist, ICI 182,780 was dissolved in acetone and 200 μl was topically applied twice weekly. Mice were treated with the estrogen receptor antagonist ICI 182,780 as provided in Example 1. Twice-weekly treatment of clipped dorsal skin was begun when the mice were 6 weeks of age, with either (a) 10 nmol ICI 182,780 in acetone or (b) acetone alone. […] In order to determine if 17-β-estradiol could influence hair growth, six week old CD-1 female mice were clipped on the dorsal surface with electric clippers and then treated twice weekly from the 6th week of age to the 16th week of age with topical applications of either (a) 10 nmol 17-β-estradiol or (b) acetone vehicle alone. […] In order to determine if 17-β-estradiol could block hair growth in pre-existing anagen follicles, 10 week old mice in the anagen phase of the hair cycle were treated twice weekly with 17-β-estradiol applied topically to clipped dorsal skin.

SMILES | hair follicle phase ([1]; 17-β-estradiol twice weekly from 4th week of age, 15 weeks of age, termination of experiment) | hair follicle phase ([1]; 17-β-estradiol twice weekly from 4th week of age, at 7 weeks of age, acetone mice also in telogen) | hair follicle phase ([1]; 17-β-estradiol twice weekly from 4th week of age, by 9 weeks of age, acetone mice entered anagen) | hair follicle phase ([1]; 17-β-estradiol twice weekly from 4th week of age, by 11 weeks of age, acetone mice in mid to late anagen) | effect on hair growth (figure legend) [2] | effect on dorsal hair regrowth ([2]; 10 nmol topically twice weekly from 6th to 16th week of age) | full hair regrowth ([2]; 10 nmol topically twice weekly from 6th to 16th week of age, by 16 weeks of age, 100% of acetone mice regrown by 13 weeks) | partial patchy hair regrowth, share of total clipped area ([2]; 10 nmol topically twice weekly from 6th to 16th week of age, some of the treated mice) | mice demonstrating partial patchy hair regrowth ([2]; at 12 weeks of age) [%] | mice demonstrating partial patchy hair regrowth ([2]; by 15 weeks) [%] | hair growth in pre-existing anagen follicles ([2]; treatment continued for 10 weeks) | hair growth in pre-existing anagen follicles ([2]; within two weeks, all acetone mice developed full coat) | hair follicle phase ([1]; 10 nmol ICI 182,780 twice weekly from 6 weeks, at 7 weeks of age, acetone mice in second telogen) | hair follicle phase ([1]; 10 nmol ICI 182,780 twice weekly from 6 weeks, at eleven weeks of age, control mice in mid to late anagen) | hair follicle phase ([1]; 10 nmol ICI 182,780 twice weekly from 6 weeks, by eight weeks of age, acetone mice in telogen) | effect on duration of anagen ([1]; conclusion from histology at eleven weeks of age) | mice demonstrating full hair regrowth ([2]; 10 nmol in acetone topically twice weekly from 6 weeks of age, by 9 weeks of age, no hair growth in acetone-treated mice) [%] | mice that developed a full coat of hair ([2]; 10 nmol in acetone topically twice weekly from 6 weeks of age, by 10 weeks of age, 40% of acetone-treated mice)
C[C@]12CC[C@@H]3c4ccc(O)cc4CC[C@H]3[C@@H]1CC[C@@H]2O [17-β-estradiol] | still arrested in telogen | telogen | remained in telogen | remained in telogen | blocks hair regrowth | potent inhibitory effect | did not demonstrate any full hair regrowth | less than 10% | 20 | 40 | no hair growth was apparent | no longer growing hair | – | – | – | – | – | –
C[C@]12CC[C@@H]3c4ccc(O)cc4C[C@@H](CCCCCCCCC[S+]([O-])CCCC(F)(F)C(F)(F)F)[C@H]3[C@@H]1CC[C@@H]2O (stereo partly drawn) [ICI 182,780, 7α-[9-(4,4,5,5,5,-pentafluoropentylsulfinyl)nonyl]estra-1,3,5(10)-triene-3,17β-diol] | – | – | – | – | causes hair growth during the second telogen phase | – | – | – | – | – | – | – | early to mid anagen | entered telogen | mid to late anagen | does not prolong anagen | 60 | all

Source: patent publication US6555532B1, “Method of treating alopecia” (North Carolina State University, priority 1996, dated 2003)
